Measured values: BindingDB's records for patent US20240018157 (Schrödinger, 2024)

Target: T1, Mucosa-associated lymphoid tissue lymphoma translocation protein 1 (Homo sapiens, UniProt Q9UDY8)
T1 sequence (Q9UDY8 whole entry): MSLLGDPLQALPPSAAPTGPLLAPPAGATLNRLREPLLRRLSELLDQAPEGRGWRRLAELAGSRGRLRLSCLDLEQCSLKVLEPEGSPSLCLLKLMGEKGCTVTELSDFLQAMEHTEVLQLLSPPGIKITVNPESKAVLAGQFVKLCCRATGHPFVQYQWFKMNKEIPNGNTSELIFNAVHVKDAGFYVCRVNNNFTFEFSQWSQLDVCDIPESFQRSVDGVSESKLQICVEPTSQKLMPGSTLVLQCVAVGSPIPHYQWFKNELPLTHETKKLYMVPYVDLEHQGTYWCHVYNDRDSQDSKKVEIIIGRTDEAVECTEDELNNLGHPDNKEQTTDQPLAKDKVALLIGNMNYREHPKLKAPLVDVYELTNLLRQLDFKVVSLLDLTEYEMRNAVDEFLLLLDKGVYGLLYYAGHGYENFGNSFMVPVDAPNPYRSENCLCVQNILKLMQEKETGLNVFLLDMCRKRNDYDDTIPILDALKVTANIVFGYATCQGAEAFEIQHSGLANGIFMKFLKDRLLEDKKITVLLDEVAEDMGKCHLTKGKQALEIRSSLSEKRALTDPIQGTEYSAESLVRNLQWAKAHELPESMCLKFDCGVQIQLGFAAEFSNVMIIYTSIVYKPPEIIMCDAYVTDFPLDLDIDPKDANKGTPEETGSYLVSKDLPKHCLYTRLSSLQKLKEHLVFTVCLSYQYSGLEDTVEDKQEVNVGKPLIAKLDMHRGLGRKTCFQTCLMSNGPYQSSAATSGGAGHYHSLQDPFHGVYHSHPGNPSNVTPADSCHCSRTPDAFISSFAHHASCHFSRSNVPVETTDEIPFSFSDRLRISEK
Assay: MALT1 Protease Assay 2
Experimental: Test compounds were dissolved in 100% DMSO at stock of 10 mM, with final DMSO concentration 0.1%. Test compounds were pre-incubated with MALT1 protein for 2 h at room temperature.

Question: For `C[C@@]1(C(F)(F)F)CN(C(=O)N[C@@H]2CCCC(F)(F)C2)c2cnc3cc(Cl)nn3c21` [US20240018157, Example 54], which IC50 is on record?
Answer: The IC50 was 100 to 1000 nM.

Target: T1, Mucosa-associated lymphoid tissue lymphoma translocation protein 1
Assay: MALT1 Protease Assay 1
Experimental: The final assay buffer includes 2 nM of MALT1 full-length protein, 50 μM Ac-LRSR-AMC substrate, 50 mM Tris pH 7.5, 600 mM Sodium Citrate, 1 mM DTT, 1 mM EDTA, and 0.05% BSA in 384-well plate format using black microtiter square well plates (Optiplate 384-F, Perkin Elmer). Test compounds were dissolved in 100% DMSO at stock of 10 mM, with final DMSO concentration 0.1%. Test compounds were pre-incubated with MALT1 protein for 2 h at room temperature. Substrate was added after the pre-incubation and fluorescence signal was measured using Envision at excitation 355 nm and emission 460 nm after 8 hr incubation at RT. Increase in the assay signal was linear over this period and proportional with increase in the enzyme content.

Question: How did the IC50 turn out when `CC1(C)c2c(cnc3cc(Cl)nn23)N(C(=O)Nc2cnc(-n3nccn3)c(Cl)c2)C[C@H]1O` [US20240018157, Example 12] was run?
Answer: Its IC50 is under 10 nM.

Question: With `CO[C@H]1CN(C(=O)Nc2cnc(-n3nccn3)c(Cl)c2)c2cnc3cc(Cl)nn3c2C1(C)C` [US20240018157, Example 13] as the compound, how does the IC50 read?
Answer: The IC50 was 10 to 100 nM.

Question: `CO[C@@H]1CN(C(=O)Nc2cnc(-n3nccn3)c(Cl)c2)c2cnc3cc(Cl)nn3c2C1(C)C` [US20240018157, Example 14] was tested. Which IC50 did it give?
Answer: The IC50 was 100 to 1000 nM.

Question: How did the IC50 turn out when `C[C@]1(C(F)(F)F)CN(C(=O)Nc2cnc(-n3nccn3)c(Cl)c2)c2cnc3cc(Cl)nn3c21` [US20240018157, Example 15] was run?
Answer: Its IC50 is 10 to 100 nM.

Question: Which IC50 does the source give for `C[C@@]1(C(F)(F)F)CN(C(=O)Nc2cnc(-n3nccn3)c(Cl)c2)c2cnc3cc(Cl)nn3c21` [US20240018157, Example 16] here?
Answer: The IC50 was under 10 nM.

Question: How did the IC50 turn out when `COc1ccc(NC(=O)N2C[C@@](C)(C(F)(F)F)c3c2cnc2cc(Cl)nn32)cc1Cl` [US20240018157, Example 19] was run?
Answer: The IC50 was under 10 nM.

Question: For `Cc1cc(NC(=O)N2C[C@@](C)(C(F)(F)F)c3c2cnc2cc(Cl)nn32)cnc1-n1nccn1` [US20240018157, Example 21], which IC50 is on record?
Answer: The IC50 was under 10 nM.

Question: `Cn1ccc(-c2ncc(NC(=O)N3C[C@@](C)(C(F)(F)F)c4c3cnc3cc(Cl)nn43)cc2Cl)n1` [US20240018157, Example 25] was tested. Which IC50 did it give?
Answer: The IC50 was under 10 nM.

Question: `C[C@@]1(C(F)(F)F)CN(C(=O)Nc2cnc(-n3cccn3)c(Cl)c2)c2cnc3cc(Cl)nn3c21` [US20240018157, Example 26] was tested. Which IC50 did it give?
Answer: The IC50 was under 10 nM.

Question: Which IC50 does the source give for `Cc1cc2ncc3c(n2n1)[C@@](C)(C(F)(F)F)CN3C(=O)Nc1cnc(-n2nccn2)c(Cl)c1` [US20240018157, Example 31] here?
Answer: Its IC50 is 10 to 100 nM.

Question: `C[C@@]1(C(F)(F)F)CN(C(=O)Nc2cnc([C@@H]3CCCO3)c(Cl)c2)c2cnc3cc(Cl)nn3c21` [US20240018157, Example 33] was tested. Which IC50 did it give?
Answer: Its IC50 is 10 to 100 nM.

Question: How did the IC50 turn out when `C[C@@]1(C(F)(F)F)CN(C(=O)Nc2cnc([C@H]3CCCO3)c(Cl)c2)c2cnc3cc(Cl)nn3c21` [US20240018157, Example 34] was run?
Answer: Its IC50 is under 10 nM.

Question: How did the IC50 turn out when `C[C@]1(C(F)(F)F)CN(C(=O)Nc2cnc(-n3nccn3)c(Cl)c2)c2cnc3cc(F)nn3c21` [US20240018157, Example 38] was run?
Answer: Its IC50 is 10 to 100 nM.

Question: For `C[C@@]1(C(F)(F)F)CN(C(=O)Nc2cnc(-n3nccn3)c(C(F)(F)F)c2)c2cnc3cc(Cl)nn3c21` [US20240018157, Example 40], which IC50 is on record?
Answer: Its IC50 is under 10 nM.

Question: For `C[C@@]1(C(F)(F)F)CN(C(=O)Nc2cnc(-n3nccn3)c(C#N)c2)c2cnc3cc(Cl)nn3c21` [US20240018157, Example 41], which IC50 is on record?
Answer: Its IC50 is under 10 nM.

Question: With `C[C@@]1(C(F)(F)F)CN(C(=O)Nc2cnc(-n3ccnn3)c(C(F)(F)F)c2)c2cnc3cc(Cl)nn3c21` [US20240018157, Example 44] as the compound, how does the IC50 read?
Answer: The IC50 was under 10 nM.

Question: For `COCc1ncc(NC(=O)N2C[C@@](C)(C(F)(F)F)c3c2cnc2cc(Cl)nn32)cc1Cl` [US20240018157, Example 45], which IC50 is on record?
Answer: Its IC50 is 10 to 100 nM.

Question: Which IC50 does the source give for `C[C@@]1(C(F)(F)F)CN(C(=O)Nc2cnc([C@@H]3CCCCO3)c(Cl)c2)c2cnc3cc(Cl)nn3c21` [US20240018157, Example 46] here?
Answer: Its IC50 is 10 to 100 nM.

Question: With `C[C@@]1(C(F)(F)F)CN(C(=O)Nc2cnc([C@H]3CCCCO3)c(Cl)c2)c2cnc3cc(Cl)nn3c21` [US20240018157, Example 47] as the compound, how does the IC50 read?
Answer: The IC50 was 10 to 100 nM.

Question: With `C[C@@]1(C(F)(F)F)CN(C(=O)Nc2cnc(-n3cc(O)cn3)c(Cl)c2)c2cnc3cc(Cl)nn3c21` [US20240018157, Example 48] as the compound, how does the IC50 read?
Answer: The IC50 was under 10 nM.

Question: Which IC50 does the source give for `C[C@@]1(C(F)(F)F)CN(C(=O)Nc2cnc(OC(F)F)c(Cl)c2)c2cnc3cc(Cl)nn3c21` [US20240018157, Example 49] here?
Answer: The IC50 was under 10 nM.

Question: `C[C@@]1(C(F)(F)F)CN(C(=O)N[C@@H]2CCCC(F)(F)C2)c2cnc3cc(Cl)nn3c21` [US20240018157, Example 54] was tested. Which IC50 did it give?
Answer: The IC50 was over 1000 nM.
